From ChEMBL document CHEMBL1759854, “Inhibitors of the tyrosine kinase EphB4. Part 4: Discovery and optimization of a benzylic alcohol series” (Bioorg Med Chem Lett, 2011)

Key:
physchem = settings: octanol/water
[1] = AUC in nude mouse at 100 umol/kg, po; assay type: ADME, organism-based; settings: plasma
[2] = Cmax in nude mouse at 100 umol/kg, po; assay type: ADME, organism-based; design: dose 100 umol/kg, route oral; settings: in vivo
[3] = AUC in nude mouse at 200 umol/kg, po; assay type: ADME, organism-based; settings: plasma
[4] = Cmax in nude mouse at 200 umol/kg, po; assay type: ADME, organism-based; design: dose 200 umol/kg, route oral; settings: in vivo
Canis familiaris = test: Clearance in Beagle dog assessed as liver blood flow at 2 umol/kg, iv and 5 umol/kg, po; assay type: ADME, organism-based, Canis lupus familiaris; settings: in vivo
[5] = Volume of distribution at steady state in Beagle dog at 2 umol/kg, iv and 5 umol/kg, po; assay type: ADME, organism-based, Canis lupus familiaris; settings: in vivo, read-out: Vdss
[6] = Oral bioavailability in Beagle dog at 5 umol/kg, po; assay type: ADME, organism-based, Canis lupus familiaris; settings: in vivo
[7] = AUC in nude mouse at 10 umol/kg, po; assay type: ADME, organism-based; settings: plasma
[8] = Cmax in nude mouse at 10 umol/kg, po; assay type: ADME, organism-based; design: dose 10 umol/kg, route oral; settings: in vivo
[9] = Oral bioavailability in Han Wistar rat at 5 or 10 µmol/kg, po; settings: in vivo
Rattus norvegicus = test: Clearance in Han Wistar rat assessed as liver blood flow at 1 or 2.5 µmol/kg, iv and 5 or 10 µmol/kg, po; settings: in vivo
[10] = Volume of distribution at steady state in Han Wistar rat at 1 or 2.5 µmol/kg, iv and 5 or 10 µmol/kg, po; settings: in vivo, read-out: Vdss

Molecule `Cc1ccc(CO)cc1N(c1ccnc(Nc2cc(N3CCOCC3)cc(S(C)(=O)=O)c2)n1)C(C)C` has a logD (physchem) of 3.4.
Molecule `Cc1ccc(CO)cc1N(C)c1ccnc(Nc2cc(N3CCOCC3)cc(N3CCOCC3)c2)n1` has an AUC [1] of 63 µM·h, a Cmax [2] of 15 µM and an AUC [3] of 155 µM·h. The Cmax [4] was 17 µM, the LBF (Canis familiaris) was 51% and the Vd [5] was 2.1 L/kg. The bioavailability [6] was 58%, the AUC [7] was 1.6 µM·h and the Cmax [8] was 1.9 µM. For the same molecule, the logD (physchem) was 3.1, the bioavailability [9] was 78% and the LBF (Rattus norvegicus) was 11%. The Vd [10] was 0.5 L/kg.
Work on `Cc1ccc(CO)cc1N(C)c1ccnc(Nc2cc(N3CCCC3)cc(N3CCOCC3)c2)n1` yielded a logD (physchem) of 3.8.
Work on `Cc1ccc(CO)cc1N(C)c1ccnc(Nc2cc(N3CCCCC3)cc(N3CCOCC3)c2)n1` yielded a logD (physchem) of 4.2.
Work on `Cc1ccc(CO)cc1N(C)c1ccnc(Nc2cc(N3CCCOCC3)cc(N3CCOCC3)c2)n1` yielded a logD (physchem) of 3.3.
Molecule `Cc1ccc(CO)cc1N(C)c1ccnc(Nc2cc(N3CCOCC3)cc(N3CCN(O)CC3)c2)n1` has a logD (physchem) of 2.8.
With `Cc1ccc(CO)cc1N(C)c1ccnc(Nc2cc(CN3CCOCC3)cc(N3CCOCC3)c2)n1` the logD (physchem) was 3.
Molecule `Cc1ccc(CO)cc1N(C)c1ccnc(Nc2cc(C(=O)N3CCOCC3)cc(N3CCOCC3)c2)n1` has a logD (physchem) of 2.2.
For `Cc1ccc(CO)cc1N(C)c1ccnc(Nc2cc(OC3CCOCC3)cc(N3CCOCC3)c2)n1`, the logD (physchem) was 3.7.
With `COCCOc1cc(Nc2nccc(N(C)c3cc(CO)ccc3C)n2)cc(N2CCOCC2)c1` the logD (physchem) was 3.3.
`COc1cc(Nc2nccc(N(C)c3cc(CO)ccc3C)n2)cc(N2CCOCC2)c1` showed a logD (physchem) of 3.9.
`Cc1ccc(CO)cc1N(C)c1ccnc(Nc2cc(N3CCOCC3)cc(S(C)(=O)=O)c2)n1` showed a bioavailability [9] of 17%, an LBF (Rattus norvegicus) of 16% and a Vd [10] of 0.4 L/kg.
In the case of `CCN(c1ccnc(Nc2cc(N3CCOCC3)cc(N3CCOCC3)c2)n1)c1cc(CO)ccc1C`, the logD (physchem) was 3.8.
Molecule `COCCN(c1ccnc(Nc2cc(N3CCOCC3)cc(N3CCOCC3)c2)n1)c1cc(CO)ccc1C` has a logD (physchem) of 2.8.
For `Cc1ccc(CO)cc1N(C)c1ccnc(Nc2cc(N3CCOCC3)nc(N3CCOCC3)c2)n1`, the LBF (Canis familiaris) was 57%, the Vd [5] was 1.6 L/kg and the bioavailability [6] was 22%. It also gave a logD (physchem) of 3.4, a bioavailability [9] of 64% and an LBF (Rattus norvegicus) of 9%. It also gave a Vd [10] of 0.7 L/kg.
Molecule `Cc1ccc(CO)cc1N(C)c1ccnc(Nc2cc(N3CCOCC3)nc(N3CCOCC3)n2)n1` has a logD (physchem) of 3.9.
